Reference: paper PMC3458005, “Involvement of the Azotobacter vinelandii Rhodanese-Like Protein RhdA in the Glutathione Regeneration Pathway” (PLoS ONE, 2012)

Assays:
[1] = target: T1, RhdA (Azotobacter vinelandii, UniProt P52197); experiment: intrinsic tryptophan fluorescence titration; assay type: binding
T1 construct: His-tagged (pQER1) from E. coli BL21[pRep4], Ni-NTA purified; cyanide-treated (sulfane sulfur-deprived); only cysteine Cys230

[2] = system: N[C@@H](CCC(=O)N[C@@H](C[S])C(=O)NCC(=O)O)C(=O)O; experiment: purified protein; conditions: pH 7.4; 25.0 °C

T1 sequence (P52197 whole entry): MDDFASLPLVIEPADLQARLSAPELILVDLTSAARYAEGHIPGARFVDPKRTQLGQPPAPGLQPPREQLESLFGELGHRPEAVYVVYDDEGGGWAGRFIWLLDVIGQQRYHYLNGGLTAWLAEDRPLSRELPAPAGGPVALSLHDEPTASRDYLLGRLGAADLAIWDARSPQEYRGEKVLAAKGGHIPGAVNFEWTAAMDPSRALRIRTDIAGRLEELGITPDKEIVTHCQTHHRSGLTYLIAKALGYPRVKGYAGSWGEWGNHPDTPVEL

Compound | Kd [1] | Km [2]
N[C@@H](CCC(=O)N[C@@H](C[S])C(=O)NCC(=O)O)C(=O)O [GS^•, glutathione thiyl radical] | ~11 µM | 
RhdA (Azotobacter vinelandii) |  | 560 ± 110 µM
O=S(O)(O)=S [thiosulfate] | 0.76 ± 0.01 µM | 
